This is an account of results in patent publication US20120107861A1, “METHOD OF DETERMINING RISK OF ARRHYTHMIA” (priority 2010, published 2012).

In data set [1] the test system is human iPSC-derived cardiomyocytes (iCells). The following applies: for IB20: lowest concentration producing IBR ≥0.2 (≥20% irregular beats over one minute); for amplitude of impedance: amplitude of each beat. On the procedure:
Cell Culture. hiPSC-derived cardiomyocytes (iCells) from Cellular Dynamics International (CDT) were thawed in Plating Media (CDI and plated as single cells onto 0.1% Gelatin (Sigma)-coated, 6-well tissue-culture plates (Corning) at a density of 2.2−2.7×10^6 cells per well. Cells were cultured for 3-5 d at 37° C., 7% CO2 prior to re-plating onto xCELLigence® 96-well cardio e-plates (ACEA/Roche Applied Sciences) or microelectrode arrays (MEAs, Multichannel Systems). The media was changed every 2 d after plating using Maintenance Media (CDI), pre-warmed to 37° C. to minimize the temperature shock on cells.
xCELLigence® cardio e-plates and MEA Re-plating. iCells cultured in 6-well plates were harvested by twice washing in dPBS (GIBCO) then lifted with 0.5% Trypsin-EDTA (GIBCO), incubated at 37° C., 7% CO2. Trypsin was quenched with Maintenance Media and cells were collectively centrifuged at 69 g for 5 minutes and resuspended in Maintenance Media to yield the target density. For cardio e-plate reseeding, cells were plated at a target density of 5×10^4 per well, estimating 80% seeding efficiency. Cardio e-plates were coated with 0.1% Gelatin for 3 h at 37° C. Background impedance measurements for cardio e-plates were made with the final volume of media equilibrated to 37° C. but without cells, immediately prior to reseeding the cells. The cells were monitored every 1 h by a 20 s sweep duration by the xCELLigence® RTCA cardio system at its maximum sampling rate (77 Hz) prior to initiating experimentation.
xCELLigence® and MEA Experimentation. Compound stocks were prepared in DMSO or dH2O at 1000 fold the highest tested concentration. For xCELLigence® experimentation, compound stocks were serially diluted in Maintenance Media in a separate 96-well tissue culture plate (Corning) at twice the target concentration. The dilution plate was incubated and equilibrated to 37° C. prior to cell exposure. […] All compounds were tested as n≧3 on multiple cardio e-plates. The xCELLigence® monitored changes to the beating for periodic 20 s sweep durations at 77 Hz.
Data Analysis. Data were first analyzed by the built-in analysis modules of xCELLigence® and MEAs systems, initial results were then exported into in-house developed Microsoft Excel templates for further semi-auto analysis. […] To calculate the “Predicted Proarrhythmic Score” (PPS), we first determined a “Irregular Beat Ratio” (IBR). The IBR was defined as the ratio of arrhythmic beat counts to the total number of beats over one minute. IBR values for each concentration at each selected time-point was averaged from 3 to 5 e-plates. The lowest concentration of drug, that generated a IBR value ≧0.2 was determined and termed “IB20.” Finally, the maximal therapeutic plasma concentration (Cmax) was divided by the IB20 to arrive at the PPS. A PPS >100 is a level of concern for drug-induced arrhythmia. […]

The test system is the same in data set [2]. In words: Multi-electrode array (MEA) field potential recording of iPSC-derived cardiomyocytes. As to conditions: iPSC-CMs. It is filed as cell-based. On the procedure:
MEAs were prepared according to manufacturer guidelines. Briefly, microelectrodes in 6-well MEA dishes were coated with 2 μL Fibronectin (Sigma) diluted 1:20 and incubated at 37° C. for 3 h. Cells were reseeded at the target density of 3×10^4 cells in a 2 μL delivery to microelectrodes and incubated at 37° C., 7% CO2 for 3 h prior to filling each well with Maintenance Media. The media of cardio e-plates and MEAs were changed every 2 d thereafter, using Maintenance Media warmed to 37° C. Cells were cultured for 3-7 d prior to conducting an experiment on cardio e-plates or MEAs.
The wells of the MEAs had half the volume in each well replaced with fresh warm Maintenance Media, immediately prior to experimentation so as to be consistent with the media replacement for xCELLigence® experimentation. MEAs were allowed a 15 min equilibration period within the MEA recorder system (Multichannel Systems), prior to compound exposure. The temperature was maintained at 37° C. and a constant air flow of 95% O2, 5% CO2, was perfused over the MEAs. Compound additions were made in serially increasing additions, recording for 15 min at each concentration. All compounds were tested as n≧4 wells.

The conditions of data set [3]: maximum therapeutic plasma concentration, cited from earlier work.
The test system of another data set is TdP. The following applies: clinical; cited from earlier work.
The test system of a further data set is QT interval. As to conditions: cited from earlier work.
A further data set has as its target hERG channel (Homo sapiens, UniProt Q12809). The following applies: cited from earlier work.
The mark [4] stands for this setting: Table I, Cmax/IB20, cut-off >100 as level of concern.

Where two headings read alike, the source gives them in different places.

The term Cmax denotes the maximum level reached in the sampled fluid or tissue.

Sequence of hERG channel (Q12809 whole entry): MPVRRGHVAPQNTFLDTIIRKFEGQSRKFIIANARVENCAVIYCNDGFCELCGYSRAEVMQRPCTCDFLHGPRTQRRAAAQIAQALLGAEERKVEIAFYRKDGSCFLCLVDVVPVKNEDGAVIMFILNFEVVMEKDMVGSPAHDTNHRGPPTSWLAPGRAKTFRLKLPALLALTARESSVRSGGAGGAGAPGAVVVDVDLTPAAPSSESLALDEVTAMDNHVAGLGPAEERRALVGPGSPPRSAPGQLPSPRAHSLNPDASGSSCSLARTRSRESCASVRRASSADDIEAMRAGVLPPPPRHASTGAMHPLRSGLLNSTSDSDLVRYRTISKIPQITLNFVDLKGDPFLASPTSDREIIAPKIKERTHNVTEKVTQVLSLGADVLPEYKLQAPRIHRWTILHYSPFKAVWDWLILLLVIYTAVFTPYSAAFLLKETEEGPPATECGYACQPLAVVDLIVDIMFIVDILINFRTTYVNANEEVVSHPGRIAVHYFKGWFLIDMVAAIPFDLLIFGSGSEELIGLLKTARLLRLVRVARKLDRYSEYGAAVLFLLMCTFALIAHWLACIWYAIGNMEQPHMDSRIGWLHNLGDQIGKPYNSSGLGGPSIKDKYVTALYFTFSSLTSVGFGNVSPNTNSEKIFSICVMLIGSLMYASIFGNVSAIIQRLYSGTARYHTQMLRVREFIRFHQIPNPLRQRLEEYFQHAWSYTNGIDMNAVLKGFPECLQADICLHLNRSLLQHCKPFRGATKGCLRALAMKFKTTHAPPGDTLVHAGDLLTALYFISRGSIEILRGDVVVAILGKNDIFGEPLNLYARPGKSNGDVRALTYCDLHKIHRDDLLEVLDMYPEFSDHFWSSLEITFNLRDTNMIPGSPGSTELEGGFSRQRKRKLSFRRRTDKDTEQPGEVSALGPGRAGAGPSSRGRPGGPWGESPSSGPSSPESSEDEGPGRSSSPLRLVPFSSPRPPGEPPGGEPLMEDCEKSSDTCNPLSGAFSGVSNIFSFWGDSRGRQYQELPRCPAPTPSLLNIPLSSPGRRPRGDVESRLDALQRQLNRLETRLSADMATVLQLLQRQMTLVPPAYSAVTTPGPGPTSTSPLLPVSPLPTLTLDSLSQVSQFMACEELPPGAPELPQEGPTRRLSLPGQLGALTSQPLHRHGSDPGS

Consider `Cc1ccc2c(c1)C(=O)C1(O)CCN(c3ccccc3)C1=N2` (centres unmarked) [blebbistatin], for which the “cardiomyocyte beating using impedance” value in data set [1] (iPSC-CMs, myosin II inhibition) is reported as “no cardiomyocyte beating was observed”. For the same compound, the “electrophysiology of the cardiomyocytes detected by MEA” value in data set [2] is reported as “remained unchanged”.
As to `C[C@@H]1O[C@@H](O[C@H]2C[C@@H](O)[C@]3(CO)[C@H]4[C@H](O)C[C@]5(C)[C@@H](C6=CC(=O)OC6)CC[C@]5(O)[C@@H]4CC[C@]3(O)C2)[C@H](O)[C@H](O)[C@H]1O` [Ouabain], the PPS in data set [1] (setting [4]) worked out at 5667; in data set [1] (human), 0.2. Also, the IB20 in data set [1] (Table I) and in data set [1] (Table II) was 0.03 µM in each case. The “alterations in beat patterns / arrhythmic beats” value in data set [1] (human iPSC-CMs) was “Irregular beating patterns were observed”. Further, the amplitude of impedance entry in data set [1] (iPSC-CMs) is listed as “increased”. Moreover, the Cmax in data set [3] (Table I) and in data set [3] (Table II) was 170 nM throughout. Further, in data set [2] (for nifedipine Ca2+-peak amplitude), the “amplitude in MEA” value is reported as “increased”.
In the case of `CC(C)(C)c1ccc(C(O)CCCN2CCC(C(O)(c3ccccc3)c3ccccc3)CC2)cc1` (centres unmarked) [Terfenadine], the peak concentration (Cmax) in data set [3] (Table I) and in data set [3] (Table II) was 300 nM in each case.
Turning to `CCCCc1oc2ccccc2c1C(=O)c1cc(I)c(OCCN(CC)CC)c(I)c1` [Amiodarone], in the data set on TdP, the “TdP liability” value is reported as “very low risk of TdP”.
As to `CCN1C[C@]2(COC)[C@H](O)C[C@H](OC)[C@@]34[C@@H]5C[C@@]6(O)[C@H](OC(=O)c7ccccc7)[C@@H]5[C@@](OC(C)=O)([C@@H]([C@H](OC)[C@H]23)[C@@H]14)[C@@H](O)[C@@H]6OC` [Aconitine], the “concentration showing arrhythmia relative to the efficacious concentration” value in data set [1] is reported as “arrhythmia at concentrations less than the efficacious concentration”. In addition, the PPS was 2567 in data set [1] (setting [4]) and 0.4 in data set [1] (human). Also, the IB20 in data set [1] (Table I) and in data set [1] (Table II) was 0.03 µM in each case. For the same compound, the Cmax in data set [3] (Table I) and in data set [3] (Table II) was 77 nM each time.
In the case of `CC1(C)S[C@@H]2[C@H](NC(=O)[C@H](N)c3ccc(O)cc3)C(=O)N2[C@H]1C(=O)O` [Amoxicillin], the IB20 was >1,000 μM in data set [1] (Table I) and >1,000,000 nM in data set [1] (Table II). The maximum concentration (Cmax) in data set [3] (Table I) and in data set [3] (Table II) was 17000 nM in each case. The “QT prolongation” value with QT interval (in patients / in vivo) is listed as “devoid of QT prolongation”. The “TdP liability” value in the data set on TdP is “devoid of QT prolongation and TdP liability”.
In the case of `CN(CCOc1ccc(NS(C)(=O)=O)cc1)CCc1ccc(NS(C)(=O)=O)cc1` [Dofetilide], the PPS in data set [1] (setting [4]) was determined as 2000; in data set [1] (human) it was 0.5. The Cmax in data set [3] (Table I) and in data set [3] (Table II) was 6 nM throughout.
As to `COc1c(N2C[C@@H]3CCCN[C@@H]3C2)c(F)cc2c(=O)c(C(=O)O)cn(C3CC3)c12` [Moxifloxacin], the “alterations in beat patterns / arrhythmic beats” value in data set [1] was “not torsadogenic”. The PPS is listed as under 103 in data set [1] (setting [4]) and over 10 in data set [1] (human). The Cmax in data set [3] (Table I) and in data set [3] (Table II) was 10300 nM each time. Further, the “QT prolongation” value with QT interval (human, in vivo) is recorded as “induce QT prolongation”. Further, the “hERG inhibition” value on hERG channel is given as “inhibit hERG”.
On to `CNCCC(Oc1ccc(C(F)(F)F)cc1)c1ccccc1` (centres unmarked) [Fluoxetine], for which the highest concentration (Cmax) in data set [3] (Table I) and in data set [3] (Table II) was 485 nM each time. Besides, in the data set on TdP, the “TdP liability” value is listed as “very low risk of TdP”.
In the case of `COc1ccc(CCN2CCC(Nc3nc4ccccc4n3Cc3ccc(F)cc3)CC2)cc1` [Astemizole], the Cmax in data set [3] (Table I) and in data set [3] (Table II) was 8 nM throughout.
As for `CS(=O)(=O)c1ccc(C2=C(c3ccccc3)C(=O)OC2)cc1` [Rofecoxib], the peak concentration (Cmax) in data set [3] (Table I) and in data set [3] (Table II) was 1020 nM each time. Moreover, in the data set on QT interval (in patients / in vivo), the “QT prolongation” value is listed as “devoid of QT prolongation”. Also, in the data set on TdP, the “TdP liability” value was “devoid of QT prolongation and TdP liability”.
Take `CC(C)NCC(O)c1ccc(NS(C)(=O)=O)cc1` (centres unmarked) [Sotalol]: in data set [1], the “alterations in beat patterns / arrhythmic beats” value is on record as “Irregular beating patterns were observed”. The maximum concentration (Cmax) in data set [3] (Table I) and in data set [3] (Table II) was 14700 nM each time.
In the case of `COc1cc2nc(N(C)CCCNC(=O)C3CCCO3)nc(N)c2cc1OC` (centres unmarked) [Alfuzosin], the “effect at concentrations substantially higher than employed in vivo” value in data set [1] was “beat rate reduction and appearance of arrhythmic beats”. The Cmax in data set [3] (Table I) and in data set [3] (Table II) was 56 nM in each case. Further, the “QT prolongation” value in the data set on QT interval (in patients / in vivo) is “induce QT prolongation”. The “TdP liability” value in the data set on TdP is listed as “free of TdP”.
Turning to `C=C[C@H]1C[N@@]2CC[C@H]1C[C@@H]2[C@@H](O)c1ccnc2ccc(OC)cc12` [Quinidine], the “alterations in beat patterns / arrhythmic beats” value in data set [1] is “Irregular beating patterns were observed”. The PPS stood at 2158 in data set [1] (setting [4]) and 0.5 in data set [1] (human). Besides, the Cmax in data set [3] (Table I) and in data set [3] (Table II) was 21600 nM each time.
For the compound `CC[C@H]1OC(=O)[C@H](C)[C@@H](O[C@H]2C[C@@](C)(OC)[C@@H](O)[C@H](C)O2)[C@H](C)[C@@H](O[C@@H]2O[C@H](C)C[C@H](N(C)C)[C@H]2O)[C@](C)(O)C[C@@H](C)C(=O)[C@H](C)[C@@H](O)[C@]1(C)O` [Erythromycin], the “alterations in beat patterns / arrhythmic beats” value in data set [1] was “Irregular beating patterns were observed”. The Cmax in data set [3] (Table I) and in data set [3] (Table II) was 34100 nM in each case.
Take `CCN(c1ccccc1)c1cc(=NC)n(C)c(C)n1.Cl` [ZD7288]: the beat rate entry in data set [1] (iPSC-CMs, impedance) is reported as “reduction in beat rate”.
Regarding `CC(=O)Oc1ccccc1C(=O)O` [Aspirin], the Cmax in data set [3] (Table I) and in data set [3] (Table II) was 10000 nM throughout. Also, in the data set on QT interval (in patients / in vivo), the “QT prolongation” value was “devoid of QT prolongation”. The “TdP liability” value with TdP is “devoid of QT prolongation and TdP liability”.
Regarding `Cc1cccc(CCN2CCC(C(=O)c3ccc(NS(C)(=O)=O)cc3)CC2)n1` [E-4031], in data set [1] (iPSC-CMs, impedance), the beat rate result is “dose-dependent reduction in beat rate”.
On to `COc1cc(N)c(Cl)cc1C(=O)NC1CCN(CCCOc2ccc(F)cc2)CC1OC` (centres unmarked) [Cisapride], for which the “alterations in beat patterns / arrhythmic beats” value in data set [1] is recorded as “Irregular beating patterns were observed”. The maximum concentration (Cmax) in data set [3] (Table I) and in data set [3] (Table II) was 129 nM in each case.
Compound `C[C@H](CS)C(=O)N1CCC[C@H]1C(=O)O` [Captopril] showed a PPS in data set [1] (setting [4]) of under 25. For the same compound, the Cmax in data set [3] (Table I) and in data set [3] (Table II) was 2470 nM throughout. In addition, in the data set on QT interval (human, in vivo), the “QT prolongation” value is given as “devoid of QT prolongation”.
`NC1=N[C@H](O)[C@H]2[C@H]3O[C@]4(O)O[C@@H]([C@@H](O)[C@@]2(N1)[C@@H]4O)[C@]3(O)CO` [Tetrodotoxin]: in data set [1], the beat rate entry was “reduction in beat rate”.
Consider `CC(C)NCC(O)c1ccc(O)c(O)c1` (centres unmarked) [Isoproterenol], for which the amplitude of impedance result in data set [1] (iPSC-CMs) is given as “increased”. Moreover, the beat rate result in data set [1] (iPSC-CMs, impedance) was “increased”. The “beat rate in MEA” value in data set [2] is listed as “increased”.
